Data reported in paper PMC3499368, “Evolution of Minimal Specificity and Promiscuity in Steroid Hormone Receptors” (PLoS Genetics, 2012).
Read-outs that look alike come from different tables or passages of the source.

Legend:
AncSR1-LBD = test: luciferase reporter gene assay, Gal4-DBD fusion of AncSR1-LBD in CHO-K1 cells, activation; format: cell-based; conditions: for activation (in words): fold activation at 10^-6 M, Fig. S5C
Text: To experimentally test these hypotheses, we synthesized cDNAs for the AncSR1 and AncSR2 LBD protein sequences, expressed them as Gal4-DBD fusion constructs, and characterized their sensitivity to hormones using luciferase reporter gene assays.

AncSR1_Alt1 = test: luciferase reporter assay, alternative reconstruction AncSR1_Alt1; format: cell-based; conditions: for activation (in words): Alt1, fold activation at 10^-6 M, Fig. S5C; for EC50: Alt1, Fig. S5B
Text: (§1) To determine the robustness of functional inferences to statistical uncertainty in the reconstruction of AncSR1 and AncSR2, we used two approaches. AncSR1 had too many ambiguously reconstructed sites to examine each such residue individually, so we computationally sampled from the posterior probability distribution of reconstructed amino acid states to generate a cloud of possible ancestral sequences, each harboring a large number of alternate states. Specifically, we generated 1,000,000 possible ancestral sequences by sampling from the posterior probability distribution of states at each site. […] We synthesized these five radically alternative ancestral reconstructions de novo and repeated the functional assays.
(§2) A) Distribution of posterior probabilities of 1 million protein sequences assembled by sampling amino acid states at each site from the posterior probability distribution for AncSR1 LBD. The ML reconstruction (AncSR1-ML) and the five alternative sequences with the highest posterior probability (Alt1-Alt5) in the 1 million samples are […]
(§3) The column height and error bars indicate the mean and SEM of three independent experiments, respectively. […]

AncSR1_Alt3 = test: luciferase reporter assay, alternative reconstruction AncSR1_Alt3; format: cell-based; conditions: for activation (in words): Alt3, fold activation at 10^-6 M, Fig. S5C; for EC50: Alt3, Fig. S5B
Text: as §1, §2, §3

AncSR1_Alt4 = test: luciferase reporter assay, alternative reconstruction AncSR1_Alt4; format: cell-based; conditions: for activation (in words): Alt4, fold activation at 10^-6 M, Fig. S5C; for EC50: Alt4, Fig. S5B
Text: as §1, §2, §3

AncSR2-LBD = test: luciferase reporter gene assay, Gal4-DBD fusion of AncSR2-LBD in CHO-K1 cells, activation; format: cell-based; conditions: for EC50: AncSR2, representative dose activation curves (Fig. S4) and Table S5 sections c-i
Text: To experimentally test these hypotheses, we synthesized cDNAs for the AncSR1 and AncSR2 LBD protein sequences, expressed them as Gal4-DBD fusion constructs, and characterized their sensitivity to hormones using luciferase reporter gene assays. […] It was unresponsive to a broad array of androgens, progestagens, and corticosteroids, as well as cholesterol (Figure 2A, Figure S3).
For AncSR2, we identified all plausible alternate reconstructions (those with posterior probability >0.20 excluding biochemically similar K/R, D/E, S/T, and I/L differences) and introduced each alternate state individually into the AncSR2 background using the Quikchange Mutagenesis kit (Stratagene), verified clones by sequencing, and repeated the activation assays with each version of AncSR2 (Figure S6). The ML AncSR2 sequence reconstructed on the ML tree had high baseline activation in the absence of ligand; this phenotype is almost certainly an artifact, because constitutive baseline activity is not present in any of AncSR2's extant descendants; it is well-established that some amino acid replacements can cause nuclear receptors to become constitutive by marginally stabilizing the active conformation in the absence of hormone. […] The “constitutive” Leu79 state is weakly supported on the ML tree (PP = 0.59), and has no support (PP = 0.00) on the phylogeny that is most parsimonious in terms of gene duplications and losses; in contrast, the “non-constitutive” state Met79 has PP = 0.41 on the ML tree and PP = 1.00 on the rearranged gene duplication/loss tree (Figure S12, Table S8). The AncSR2 sequence used for all experiments reported in the text therefore contains state Met79. The other alternate reconstructions were then reintroduced into this AncSR2 sequence: none qualitatively changed the receptor's sensitivity to the various classes of steroid hormones, except for A171V, which conferred constitutive activity (Figure S6).

AncSR1_Alt2 = test: luciferase reporter assay, alternative reconstruction AncSR1_Alt2; format: cell-based; conditions: for activation (in words): Alt2, fold activation at 10^-6 M, Fig. S5C; for EC50: Alt2, Fig. S5B
Text: as §1, §2, §3

AncSR1_Alt5 = test: luciferase reporter assay, alternative reconstruction AncSR1_Alt5; format: cell-based; conditions: for activation (in words): Alt5, fold activation at 10^-6 M, Fig. S5C; for EC50: Alt5, Fig. S5B
Text: as §1, §2, §3

AncSR2 = test: luciferase reporter assay, inhibition of AncSR2 in the presence of EC80 11-deoxycorticosterone; conditions: in the presence of EC80 11-deoxycorticosterone (1.7 nM)
AncSR1 = test: luciferase reporter assay, inhibition of AncSR1 in the presence of estradiol; format: cell-based; conditions: with estradiol
[1] = molecular target: T1, estrogen receptor ligand binding domain (Capitella capitata, UniProt C0IRV2); test: activation of the estrogen receptor ligand binding domain of Capitella capitata
T1 sequence (C0IRV2 151-381): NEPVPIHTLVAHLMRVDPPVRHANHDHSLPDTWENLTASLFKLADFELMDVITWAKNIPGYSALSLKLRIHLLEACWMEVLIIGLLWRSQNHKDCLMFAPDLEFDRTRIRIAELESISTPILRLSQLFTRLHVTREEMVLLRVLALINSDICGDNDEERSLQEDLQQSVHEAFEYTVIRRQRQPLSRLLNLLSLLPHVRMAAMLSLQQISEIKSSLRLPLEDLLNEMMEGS
Text: (§4) Fig. S8 Activation of the estrogen receptor ligand binding domains of two annelids (Capitella capitata, a polychaete worm &
(§5) Values adjacent to the hormone legends (red squares and black triangles) indicate the EC50 value for

[2] = molecular target: T2, estrogen receptor ligand binding domain (Platynereis dumerilii, UniProt C0IR13); test: activation of the estrogen receptor ligand binding domain of Platynereis dumerilii
T2 sequence (C0IR13 197-482): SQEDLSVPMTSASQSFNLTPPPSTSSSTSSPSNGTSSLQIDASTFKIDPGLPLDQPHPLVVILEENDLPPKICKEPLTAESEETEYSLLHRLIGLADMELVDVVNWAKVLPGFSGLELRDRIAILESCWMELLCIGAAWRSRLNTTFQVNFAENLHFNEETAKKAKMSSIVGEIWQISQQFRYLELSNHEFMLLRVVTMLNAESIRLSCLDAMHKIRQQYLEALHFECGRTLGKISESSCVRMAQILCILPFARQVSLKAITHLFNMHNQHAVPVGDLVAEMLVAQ
Text: as §4, §5

[3] = AncSR2, Table S5 section f, pairs H1/H2: 1/6, 2/7, listed as given under Hormone 1
[4] = AncSR2, Table S5 section g, pairs H1/H2: 1/3, 2/4, listed as given under Hormone 1
[5] = AncSR1, Table S5 section b, pairs H1/H2: 18/19, 22/20, 8/23, listed as given under Hormone 1
[6] = AncSR1, representative dose activation curves (Fig. S3) and Table S5 section b
[7] = AncSR2, Table S5 section e, pairs H1/H2: 18/17, 9/6, 15/13, listed as given under Hormone 1
[8] = AncSR2, Table S5 section i, pairs H1/H2: 8/6, 17/13, 18/15, listed as given under Hormone 1
[9] = AncSR2, Table S5 section d, pairs H1/H2: 13/6, 17/8, 15/9, 16/10, 19/23, listed as given under Hormone 1

## 11-deoxycorticosterone
AncSR1-LBD; AncSR1-ML
  activation (in words): none are activated
AncSR1_Alt1
  activation (in words): none are activated
AncSR1_Alt3
  activation (in words): none are activated
AncSR1_Alt4
  activation (in words): none are activated
AncSR2-LBD; AncSR2, 11-deoxycorticosterone concentration used in inhibition assay
  EC80: 1.7 nM
AncSR2-LBD; [3]
  Ratio H1/H2 of EC50, preference for 21-OH group vs. H group: 0.08
  Ratio H2/H1 of EC50, preference for 21-OH group vs. H group: 13.10
AncSR2-LBD; [4]
  Ratio H1/H2 of EC50, preference for 11-OH vs. H group: 1.35
  Ratio H2/H1 of EC50, preference for 11-OH vs. H group: 0.74
AncSR2-LBD; read-out: EC50
  EC50: 0.42 nM
AncSR1_Alt2
  activation (in words): none are activated
AncSR1_Alt5
  activation (in words): none are activated

## CC/C(=C(\c1ccc(O)cc1)c1ccc(OCCN(C)C)cc1)c1ccccc1 [4-hydroxytamoxifen, 4-Hydroxytamoxifen]
AncSR2
  inhibition of AncSR2 (in words): not inhibited
AncSR1
  inhibition of AncSR1 (in words): competitively inhibited

## C[C@]12CC[C@@H]3c4ccc(O)cc4C[C@@H](CCCCCCCCC[S+]([O-])CCCC(F)(F)C(F)(F)F)[C@H]3[C@@H]1CC[C@@H]2O (some centres unmarked) [ICI 182,780, fulvestrant]
AncSR2
  inhibition of AncSR2 (in words): not inhibited
AncSR1
  inhibition of AncSR1 (in words): competitively inhibited

## CC12CCC3C4CCC(O)C=C4CCC3C1CCC2O (centres unmarked) [bolandiol]
AncSR1-LBD; [5]
  Ratio H1/H2 of EC50, preference for aromatized A-ring: 36.02
  Ratio H2/H1 of EC50, preference for aromatized A-ring: 0.03
AncSR1-LBD; [6]
  EC50: 1760 nM
AncSR2-LBD; [7]
  Ratio H1/H2 of EC50, preference for 3-hydroxy vs. 3-keto group: 0.29
  Ratio H2/H1 of EC50, preference for 3-hydroxy vs. 3-keto group: 3.45
AncSR2-LBD; [8]
  Ratio H1/H2 of EC50, preference for 19-H vs. 19-methyl group: 0.08
  Ratio H2/H1 of EC50, preference for 19-H vs. 19-methyl group: 13.10
AncSR2-LBD
  EC50: 20 nM

## CC(C)CCC[C@@H](C)[C@H]1CC[C@H]2[C@@H]3CC=C4C[C@@H](O)CC[C@]4(C)[C@H]3CC[C@]12C [cholesterol]
AncSR1-LBD; luciferase reporter
  activation of AncSR1 (in words): unresponsive
AncSR2-LBD; luciferase reporter
  activation of AncSR2 (in words): completely unresponsive

## C[C@]12CCC(=O)C[C@@H]1CC[C@@H]1[C@@H]2CC[C@]2(C)[C@@H](O)CC[C@@H]12 [dihydrotestosterone]
AncSR1-LBD; AncSR1-ML
  activation (in words): none are activated
AncSR1_Alt1
  activation (in words): none are activated
AncSR1_Alt3
  activation (in words): none are activated
AncSR1_Alt4
  activation (in words): none are activated
AncSR2-LBD
  EC50: 172 nM
AncSR1_Alt2
  activation (in words): none are activated
AncSR1_Alt5
  activation (in words): none are activated

## C[C@]12CC[C@@H]3c4ccc(O)cc4CC[C@H]3[C@@H]1CC[C@@H]2O [estradiol]
AncSR1-LBD; AncSR1, estradiol concentration used in inhibition assay
  EC80: 200 nM
AncSR1-LBD; [6]
  EC50: 49 nM
AncSR1-LBD; AncSR1-ML, Fig. S5B
  EC50: 66 nM
AncSR1_Alt1
  EC50: 50 nM
[1]
  EC50: 8.6 nM
AncSR1_Alt3
  EC50: 12 nM
AncSR1_Alt4
  EC50: 316 nM
AncSR2-LBD; read-out: EC50
  EC50: > 10000 nM
[2]
  EC50: 12 nM
AncSR1_Alt2
  EC50: 350 nM
AncSR1_Alt5
  EC50: 94 nM

## C[C@]12CC[C@@H]3c4ccc(O)cc4CC[C@H]3[C@@H]1C[C@@H](O)[C@@H]2O [estriol]
AncSR1-LBD; [6]
  EC50: 970 nM
AncSR1-LBD; AncSR1-ML, Fig. S5B
  EC50: 974 nM
AncSR1_Alt1
  EC50: 322 nM
AncSR1_Alt3
  EC50: 149 nM
AncSR1_Alt4
  EC50: 2010 nM
AncSR1_Alt2
  EC50: 2220 nM
AncSR1_Alt5
  EC50: 390 nM

## C[C@]12CC[C@@H]3c4ccc(O)cc4CC[C@H]3[C@@H]1CCC2=O [estrone]
AncSR1-LBD; [6]
  EC50: 69 nM
AncSR1-LBD; AncSR1-ML, Fig. S5B
  EC50: 208 nM
AncSR1_Alt1
  EC50: 133 nM
AncSR1_Alt3
  EC50: 42 nM
AncSR1_Alt4
  EC50: 844 nM
AncSR1_Alt2
  EC50: 3000 nM
AncSR1_Alt5
  EC50: 223 nM

## CC(=O)[C@H]1CC[C@H]2[C@@H]3CCC4=CC(=O)CC[C@]4(C)[C@H]3CC[C@]12C [progesterone]
AncSR1-LBD; AncSR1-ML
  activation (in words): none are activated
AncSR1_Alt1
  activation (in words): none are activated
AncSR1_Alt3
  activation (in words): none are activated
AncSR1_Alt4
  activation (in words): none are activated
AncSR2-LBD; read-out: EC50
  EC50: 5.5 nM
AncSR1_Alt2
  activation (in words): none are activated
AncSR1_Alt5
  activation (in words): none are activated

## C[C@]12CC[C@H]3[C@@H](CCC4=CC(=O)CC[C@@]43C)[C@@H]1CC[C@@H]2O [testosterone]
AncSR1-LBD; AncSR1-ML
  activation (in words): none are activated
AncSR1_Alt1
  activation (in words): none are activated
AncSR1_Alt3
  activation (in words): none are activated
AncSR1_Alt4
  activation (in words): none are activated
AncSR2-LBD; [9]
  Ratio H1/H2 of EC50, preference for 17-acetyl vs. 17-hydroxy group: 21.09
  Ratio H2/H1 of EC50, preference for 17-acetyl vs. 17-hydroxy group: 0.05
AncSR2-LBD
  EC50: 116 nM
AncSR1_Alt2
  activation (in words): none are activated
AncSR1_Alt5
  activation (in words): none are activated
